Ends that are not written are not given here.
Assay: Peptide presence in plasma after oral administration
Assay type: in vivo
Details: Wistar rats, 10 mg/kg bw oral, plasma at 0, 30 and 60 min, pooled n = 6, SPE extraction, UHPLC-MS/MS (limit of detection 0.05 ppb) and UHPLC-HRMS
Method: Male Wistar rats (17–20 weeks-old, weighing between 230 and 250 g) were obtained from Charles River Laboratories (Barcelona, Spain). Animals were maintained in pairs, at 22 °C with light/dark cycles of 12 h and were fed standard chow diet (AO4, Panlab, Barcelona, Spain) ad libitum during all the experiment. Animals were randomly divided and administered tap water (control group, n = 6) or 10 mg/kg body weight (bw) peptide ([…] group, n = 6) by gastric intubation after starvation of 12 h. The total volume of water or […] orally administered to the rats was 1 mL. […]
Solid-phase extraction (SPE): Plasma samples (150 µL) were mixed with 25 µL of IFV*[…] […] Eluted samples were dried in a speed-vac concentrator (Thermo Fisher, Waltham, Massachusetts), USA), reconstituted in 100 µL of water (0.1 % FA and 0.1 % BSA), and analyzed by UHPLC-MS/MS. […]
The obtained purified solutions from plasma and peptide digests G60 and D60 and from AP and BL chambers in Caco-2 experiment were analyzed using a UHPLC 1290 Infinity II Series coupled to a QqQ 6490 Series (Agilent Technologies, Santa Clara, CA, USA) for tandem mass experiments or a qTOF 6550 Series (Agilent Technologies) for high-resolution mass spectrometry experiments. […]

For AVFQHNCQE, the “Presence of peptide or fragments in plasma” value was “neither the peptide nor their potential fragments were identified in the plasma samples”.

Reference: paper PMC7408493, “Implication of Opioid Receptors in the Antihypertensive Effect of a Novel Chicken Foot-Derived Peptide” (Biomolecules, 2020)
